Reference: patent US8518942B2, “Caspase inhibitors and uses thereof” (Buck Institute for Research on Aging, priority 2008, dated 2013)

Experiments:
Type in all cases: biochemical
caspase-7 = target: T1, caspase-7 (Homo sapiens, UniProt P55210); experiment: Irreversible inhibitor kinetic assay (progress curve), caspase-7, substrate Ac-DEVD-AMC; conditions: casp-7; duplicate, SD included
T1 construct: gift: Guy Salvesen's laboratory, Burnham Institute (La Jolla, Calif.)
T1 sequence (P55210 24-198 limits assumed): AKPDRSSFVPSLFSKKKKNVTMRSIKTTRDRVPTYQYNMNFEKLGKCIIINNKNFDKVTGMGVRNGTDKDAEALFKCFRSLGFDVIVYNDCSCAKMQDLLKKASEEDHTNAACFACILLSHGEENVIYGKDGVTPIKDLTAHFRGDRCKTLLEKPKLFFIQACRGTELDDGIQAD
T1 sequence (P55210 207-303 limits assumed): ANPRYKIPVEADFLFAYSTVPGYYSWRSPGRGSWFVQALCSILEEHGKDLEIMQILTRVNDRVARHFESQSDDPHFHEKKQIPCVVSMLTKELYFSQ
Excerpt: (§1) Caspases-3, -6, -7, -8, and -9 were provided by Guy Salvesen's laboratory at the Burnham Institute (La Jolla, Calif.). Caspase-1 was purchased from EMD Biosciences (San Diego, Calif.) and Caspase-2 was purchased from Biomol International (Plymouth Meeting, Pa.). Caspase substrates Ac-DEVD-AMC, Ac-VDVAD-AFC, and Ac-LEHD-AFC were purchased from EMD Biosciences (San Diego, Calif.) and Ac-VDVAD-AMC was purchased from Biomol International (Plymouth Meeting, Pa.). The proteolytic cleavage of N-acyl aminocoumarins by caspases was conducted in Dynatech Microfluor fluorescence 96-well microtiter plates, and readings were taken on a Molecular Devices Spectra Max Gemini XS instrument. The excitation wavelength was 370 nm and the emission wavelength was 455 nm for AMCA substrates, the excitation wavelength was 355 nm and the emission wavelength was 450 nm for peptidyl AMC substrates, and the excitation wavelength was 430 nm and the emission wavelength was 535 nm for peptidyl AFC substrates.
(§2) The kinact/Ki for inhibitors were determined under pseudo-first order conditions using the progress curve method (Eckici et al. (2006) J. Med. Chem., 49: 5728-5749; Bieth (1995) Meth. Enzymol., 248: 59-84). Assay wells contained a mixture of inhibitor and AMC or AFC substrate in buffer. Aliquots of caspase were added to each well to initiate the assay. Hydrolysis of the AMC or AFC substrate was monitored fluorometrically for 45 min. To determine the inhibition parameters, time points for which the control ([I]=0) was linear were used. For each inhibitor, a kobs was calculated for at least four different concentrations of inhibitors via a nonlinear regression of the data according to the equation P=(vi/kobs)[1−exp(−kobst) (where product formation=P, […], and the first-order rate constant=kobs). If kobs varied linearly with [I], then the association constant kass was determined by linear regression analysis using kobs=(kass[I])/(1+[S]/Km) where [S] is the concentration of the substrate. […] Inhibition was measured in duplicate and the average of is reported. […]

caspase-5 = target: T2, caspase-5 (Homo sapiens, UniProt P51878); experiment: Irreversible inhibitor kinetic assay (progress curve), caspase-5, substrate Ac-WEHD-AMC; conditions: casp-5; duplicate, SD included
T2 sequence (P51878 137-327 limits assumed): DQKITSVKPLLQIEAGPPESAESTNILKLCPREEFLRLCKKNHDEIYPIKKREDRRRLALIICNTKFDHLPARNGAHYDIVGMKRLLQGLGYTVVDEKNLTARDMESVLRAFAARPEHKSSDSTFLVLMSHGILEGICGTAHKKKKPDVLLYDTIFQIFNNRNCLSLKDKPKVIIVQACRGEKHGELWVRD
T2 sequence (P51878 347-434 limits assumed): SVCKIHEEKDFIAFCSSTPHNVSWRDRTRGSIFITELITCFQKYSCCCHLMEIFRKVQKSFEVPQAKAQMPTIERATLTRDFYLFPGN
Excerpt: as §1, §2

caspase-1 = target: T3, caspase-1 (Homo sapiens, UniProt P29466); experiment: Irreversible inhibitor kinetic assay (progress curve), caspase-1, substrate Ac-WEHD-AMC; conditions: casp-1; duplicate, SD included
T3 construct: purchased EMD Biosciences (San Diego, Calif.)
T3 sequence (P29466 120-297 limits assumed): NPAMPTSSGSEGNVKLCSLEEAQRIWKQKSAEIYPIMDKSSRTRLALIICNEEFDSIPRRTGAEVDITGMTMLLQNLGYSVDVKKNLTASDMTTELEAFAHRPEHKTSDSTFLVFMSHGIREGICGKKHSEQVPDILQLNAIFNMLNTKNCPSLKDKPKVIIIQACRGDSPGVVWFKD
T3 sequence (P29466 317-404 limits assumed): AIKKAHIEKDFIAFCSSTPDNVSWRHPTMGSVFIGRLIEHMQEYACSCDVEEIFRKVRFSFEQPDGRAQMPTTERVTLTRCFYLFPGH
Excerpt: as §1, §2

kinact/Ki (caspase-7)	kinact/Ki (caspase-5)	kinact/Ki (caspase-1)	SMILES
27,700 ± 2,000 s^−1/M^−1	2,250 ± 350 s^−1/M^−1	55,200 ± 2,600 s^−1/M^−1	C[C@@](NS(=O)(=O)Cc1ccccc1)(c1cn([C@@H](CC(=O)O)C(=O)COc2c(F)c(F)cc(F)c2F)nn1)C1CCCCC1 [MJL-001i]
57,250 ± 1,550 s^−1/M^−1	16,500 ± 850 s^−1/M^−1	243,250 ± 350 s^−1/M^−1	C[C@@](NC(=O)CCCC(=O)O)(c1cn([C@@H](CC(=O)O)C(=O)COc2c(F)c(F)cc(F)c2F)nn1)C1CCCCC1 [MJL-002i]
34,200 ± 3,800 s^−1/M^−1	3,300 ± 200 s^−1/M^−1	55,200 ± 200 s^−1/M^−1	C[C@@](NC(=O)Cc1ccccc1)(c1cn([C@@H](CC(=O)O)C(=O)COc2c(F)c(F)cc(F)c2F)nn1)C1CCCCC1 [MJL-003i]
